# Measurements as given in patent US11939241B2, “Stable percarboxylic acid compositions and uses thereof” (Ecolab USA Inc., priority 2012, dated 2024).
# Assay: Quantitation of peroxide gases of decomposition (U-tube manometer)
# Type: physicochemical
# Description: The volume of peroxides' gases of decomposition was measured using a water filled U-tube fitted with a minimal volume tubing connected to a non-coring syringe needle. The manometer made of pyrex glass was filled partially with deionized water colored with FD&C blue dye #1 and 1,000 ppm of non-ionic surfactant. The dye allows for increased visibility of the water columns and the surfactant lowers the surface tension allowing for unbroken water columns. The manometer was also fitted with a metric ruler to allow the convenient determination of the column heights difference. Given that 1 atmosphere of pressure corresponds with […] of water column height and the limit of resolution on the column and ruler combination is about 1 mm, the signal/noise ratio approximates […].
# Procedure. Four head space vials were double rinsed with the sample solution before adding 5 mL of sample solution (via Repeat Pipettor) and sealing the vials with a silicone backed PTFE septum with aluminum cap. Immediately after sealing the vials the temperature and barometric pressure were recorded. A set of water blank replicates of the same volume were also included. The sealed vials were stored for 24-48 hours at ambient temperatures inside a dark cabinet to allow for optimal gas pressure generation.
# Calculations. By calibration of the U-tube water column displacement using a precision gas syringe, the water column height to gas volume ratio was calculated. Using the assumption of peroxide decay to molecular oxygen (ignoring CO2 or CO gases etc.), these values were converted to gas volumes and the loss of available oxygen in the sample was thereby calculated using the formulae below: 2 moles of RCO3H→2 moles of RCO2H+1 mole of O2(22.4 L of O2 at standard temperature and pressure) And 2 moles of H2O2→2 moles of H2O+1 mole of O2(22.4 L of O2 at standard temperature and pressure)
substance,measurement,setting,value
Hydrogen peroxide [F],Net O2 Lost,"5 mL sample, sealed vial, 24-48 hours, ambient temperature",0.017 g
same,Net Gas Gen.,"5 mL sample, sealed vial, 24-48 hours, ambient temperature, dark",11.9 mL
same,Rel. Loss O2,"24-48 hours, ambient temperature","0.02% w/w, %"
same,Initial H2O2,initial,"50.00 w/w, %"
same,Initial POAA,initial,"0.00 w/w, %"
same,Initial O2,initial available oxygen,"23.53 w/w, %"
